Data reported in publication PMC6370995, “Phase I study of PF‐04895162, a Kv7 channel opener, reveals unexpected hepatotoxicity in healthy subjects, but not rats or monkeys: clinical evidence of disrupted bile acid homeostasis” (Pharmacology Research & Perspectives, 2019).

How the values were obtained:
[1] = test system: Sprague-Dawley rats; test: Preliminary 7-Day Oral Toxicity Study in Rats; type: in vivo; conditions: for gross pathology: animals with impacted feces / microscopic changes in liver (and kidneys): 7 days; for gross pathology: animals with impacted feces: 10 M per group; for microscopic changes in liver (and kidneys): high-dose animals (300 mg/kg); for ALT: once daily for 7 days, 10 to 300 mg/kg/day PO
[2] = test system: healthy subjects; test: Phase 1 clinical study in healthy subjects: safety (adverse events, laboratory tests); type: in vivo, human
Method: A randomized, double‐blind, third‐party open (i.e., subject and Investigator blind, and Sponsor open), placebo‐controlled study was conducted in healthy subjects to investigate the safety, tolerability, and pharmacokinetics of single and multiple oral doses of PF‐04895162 and to characterize the effect of food on the pharmacokinetics of a single oral dose of PF‐04895162. The study was conducted in accordance with the International Conference on Harmonization guideline for Good Clinical Practice and the principles of the Declaration of Helsinki and was approved by the local independent ethics committee. All subjects gave written informed consent prior to participation in the study. The study was planned as a parallel group, dose escalation study in four cohorts of 10 subjects each, however, the study was terminated prematurely and only Cohort 1 was conducted. After an initial screening visit to confirm eligibility, subjects in Cohort 1 (Figure 1) received single oral doses of 300 mg PF‐04895162 in Period 1 (under fasting conditions) and Period 2 (under fed conditions), and then 300 mg BID PF‐04895162 or placebo for 14 days (under fasting conditions) in Period 3 (the final dose was administered on the morning of Day 14). In Period 2, subjects were given a high‐fat breakfast 25 minutes prior to dosing which had to be consumed within 20 minutes. In all periods, subjects were fasted for at least 8 hours prior to morning dosing (except for breakfast in Period 2), and received lunch and dinner approximately 4 and 9‐10 hours after the morning dose, respectively. In Period 3, subjects were randomized so that eight subjects received PF‐04895162 and two subjects received placebo. The single doses in Periods 1 and 2, and the first dose in Period 3 were each separated by 3 days. A follow‐up visit was conducted 7‐14 days after the final dose. The ClinicalTrials.gov identifier was NCT01691274.
Subjects were healthy males and/or females of nonchildbearing potential, aged 18 to 55 years inclusive with body mass index of 17.5 to 30.5 kg/m^2 and total body weight of >50 kg. Healthy was defined as no clinically relevant abnormalities identified by a detailed medical history, full physical examination, including blood pressure and pulse rate measurement, 12 lead electrocardiograms (ECGs) or clinical laboratory tests. Subjects with evidence or history of clinically significant disease (including drug allergies, but excluding untreated, asymptomatic, seasonal allergies at the time of dosing) and pregnant or nursing females were excluded from this study. Subjects with a history of seizures or conditions with a risk of seizures were also excluded. Other exclusion criteria were generally standard for healthy subject studies and included conditions affecting drug absorption, evidence of drug and/or alcohol abuse, and restrictions on the use of prescription, nonprescription, and over‐the‐counter medications and herbal remedies.
Safety was assessed throughout the study by monitoring adverse events, vital signs (blood pressure, pulse rate, and body temperature), 12‐lead ECGs, and physical examinations. Blood samples for safety laboratory assessments were collected prior to and 24 hours after the first single dose of PF‐04895162 (Day 1 and 2 of Period 1), and in Period 3 on Days 7, 14, and 21 (additional samples were also collected in response to emerging safety data). The Columbia suicide severity rating scale (C‐SSRS) was also conducted at screening or baseline and at the follow‐up visit. Blood samples for pharmacokinetic profiles of PF‐04895162 were collected from predose to 72 hours after each single dose (Periods 1 and 2), and up to 12 and 48 hours after morning dosing on Days 7 and 14, respectively, in Period 3. Additional trough samples were also collected on Days 5, 6, 12, and 13 of Period 3.

[3] = 300 mg single dose, fasted, N = 10
[4] = 300 mg single dose, fed, N = 10
[5] = Grade 1, >1.25 - 2.5 × ULN, 300 mg BID
[6] = Grade 2, >2.5 - 5 × ULN, 300 mg BID
[7] = Grade 3, >5 - 10 × ULN, 300 mg BID

SMILES: O=C(Cc1ccc(F)cc1)Nn1c(C2CC2)nc2cc(F)ccc2c1=O [PF‐04895162, N‐(2‐cyclopropyl‐7‐fluoro‐4‐oxoquinazolin‐3(4H)‐yl)‐2‐(4‐fluorophenyl)ethanamide]
- gross pathology: animals with impacted feces ([1]; 100 mg/kg): 1
- gross pathology: animals with impacted feces ([1]; 300 mg/kg): 6
- body temperature ([1]; 30, 100, and 300 mg/kg on Day 1 and 300 mg/kg on Day 7): decreased
- Body weight gain ([1]; Days 3, 5, and 7 at 30, 100, and 300 mg/kg): suppressed
- clinical signs ([1]; early in the study, primarily at 300 mg/kg): tremor, splayed stance, altered gait, piloerection, and mild tremors
- microscopic changes in liver (and kidneys) [1]: no microscopic changes in the liver or kidneys
- microscopic changes in liver (and kidneys) ([1]; listed as PF-04895162): no microscopic changes in the liver
- ALT [1]: dose-dependent increases in ALT
- ALT ([1]; listed as ICA-105665): increased in a dose-dependent manner
- ALT, Subject 8, Day 7 ([2]; 300 mg BID): 1.5 x the ULN
- Height of transaminase elevations ([2]; 300 mg BID, 14-day multiple dose): ≤ 5 x the ULN
- ALT elevation, Subject 8 ([2]; 300 mg BID, Day 14, Grade 3): 5.6 x ULN
- AST increase, Subject 8 ([2]; 300 mg BID, Grade 2): 2.7 x ULN
- Number of Subjects discontinued due to AEs, all causalities ([2]; 300 mg BID, N = 8): 1 (1)
- Number of Subjects discontinued due to AEs, treatment-related ([2]; 300 mg BID, N = 8): 1 (1)
- Number of Subjects with AEs, all causalities ([2]; 300 mg BID, N = 8): 8
- Number of Subjects with AEs, treatment-related ([2]; 300 mg BID, N = 8): 6
- Number of Subjects with Amylase increased, all causalities ([2]; 300 mg BID, N = 8): 2 (2)
- Number of Subjects with Amylase increased, treatment-related ([2]; 300 mg BID, N = 8): 2 (2)
- Number of Subjects with Decreased appetite, all causalities ([2]; 300 mg BID, N = 8): 2
- Number of Subjects with Decreased appetite, treatment-related ([2]; 300 mg BID, N = 8): 0
- Number of Subjects with Flatulence, all causalities ([2]; 300 mg BID, N = 8): 2
- Number of Subjects with Flatulence, treatment-related ([2]; 300 mg BID, N = 8): 1
- Number of Subjects with Transaminases increased, all causalities ([2]; 300 mg BID, N = 8): 6 (6)
- Number of Subjects with Transaminases increased, treatment-related ([2]; 300 mg BID, N = 8): 6 (6)
- Number of Subjects with serious AEs ([2]; 300 mg BID, N = 8): 0
- Number of Subjects with severe AEs ([2]; 300 mg BID, N = 8): 0
- ALT response, Subject 6 ([2]; 300 mg BID, by Day 14): did not demonstrate any ALT elevations
- GGT elevation, Subject 8 ([2]; 300 mg BID, starting on Day 14): 1.4 x ULN
- Subjects with elevations in ALT on Day 14 ([2]; 300 mg BID, subjects who finished Period 3): six of the remaining seven subjects
- Number of Subjects discontinued due to AEs, all causalities [2, 3]: 0
- Number of Subjects with AEs, all causalities [2, 3]: 1 (1)
- Number of Subjects with AEs, treatment-related [2, 3]: 1 (1)
- Number of Subjects with Amylase increased, all causalities [2, 3]: 0
- Number of Subjects with Decreased appetite, all causalities [2, 3]: 0
- Number of Subjects with Flatulence, all causalities [2, 3]: 0
- Number of Subjects with Transaminases increased, all causalities [2, 3]: 0
- Number of Subjects with serious AEs [2, 3]: 0
- Number of Subjects with severe AEs [2, 3]: 0
- Number of Subjects discontinued due to AEs, all causalities [2, 4]: 0
- Number of Subjects with AEs, all causalities [2, 4]: 2
- Number of Subjects with AEs, treatment-related [2, 4]: 0
- Number of Subjects with Amylase increased, all causalities [2, 4]: 0
- Number of Subjects with Decreased appetite, all causalities [2, 4]: 0
- Number of Subjects with Flatulence, all causalities [2, 4]: 0
- Number of Subjects with Transaminases increased, all causalities [2, 4]: 0
- Number of Subjects with serious AEs [2, 4]: 0
- Number of Subjects with severe AEs [2, 4]: 0
- Subjects with transaminase elevations (≥grade 1) ([2]; 300 mg twice daily for 2 weeks, healthy subjects): six of eight
- Lipase, Subject 7 ([2]; Day 3 of Period 3, 300 mg BID, ULN = 60 IU/L): 434 IU/L
- Amylase, Subject 7 ([2]; Day 3 of Period 3, 300 mg BID, ULN = 136 IU/L): 179 IU/L
- TBIL abnormalities, number of subjects, Grade 1 ([2]; Grade 1, >1 - 1.5 × ULN, 300 mg BID): 2
- ALT abnormalities, number of subjects, Grade 1 [2, 5]: 3
- AST abnormalities, number of subjects, Grade 1 [2, 5]: 0
- TBIL abnormalities, number of subjects, Grade 2 ([2]; Grade 2, >1.5 - 2.5 × ULN, 300 mg BID): 0
- ALT abnormalities, number of subjects, Grade 2 [2, 6]: 2
- AST abnormalities, number of subjects, Grade 2 [2, 6]: 1
- TBIL abnormalities, number of subjects, Grade 3 ([2]; Grade 3, >2.5 - 5 × ULN, 300 mg BID): 0
- ALT abnormalities, number of subjects, Grade 3 [2, 7]: 1
- AST abnormalities, number of subjects, Grade 3 [2, 7]: 0
- TBIL abnormalities, number of subjects, Grade 4 ([2]; Grade 4, >5 × ULN, 300 mg BID): 0
- ALT abnormalities, number of subjects, Grade 4 ([2]; Grade 4, >10 × ULN, 300 mg BID): 0
- AST abnormalities, number of subjects, Grade 4 ([2]; Grade 4, >10 × ULN, 300 mg BID): 0
